Laboratory results: patent publication US7208500B2, “Thienopyridine-phenylacetamides and their derivatives useful as new anti-angiogenic agents” (Agouron Pharmaceuticals, Inc., priority 2003, dated 2007)
pIC50, pKi: −log10 of the molar value.

Columns and labels:
[1] = molecular target: T1, unphosphorylated VEGF-R2D50 (FLVK), cytosolic domain of human VEGF-R2 (Homo sapiens, UniProt P35968, DEL940-989/E990V); assay: VEGF-R2 coupled spectrophotometric assay (FLVK); type: biochemical
T1 construct: VEGF-R2D50 contains residues 806–939 and 990–1171; made in house; host or cells: baculovirus/insect cell system
How it was run: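 Unphosphorylated VEGF-R2D50 (5–40 nM, baculovirus-expressed) was assayed with 3 mM ATP, 20 mM poly(E4Y1), 60 mM MgCl2 and 2 mM MnCl2 in HEPES pH 7.5. ADP formation was coupled via PK/LDH to NADH oxidation and followed at A340. Ki came from activity at varying compound concentrations fitted by the Morrison equation.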

[2] = test system: human umbilical vein endothelial cells (HUVEC); assay: HUVEC + VEGF proliferation assay; type: cell-based; conditions: VEGF-stimulated proliferation, final VEGF 6 ng/mL, 72 hours, MTT
Method: This assay determines the ability of a test compound to inhibit the growth factor-stimulated proliferation of human umbilical vein endothelial cells (“HUVEC”). HUVEC cells (passage 3–4, Clonetics, Corp.) were thawed into EGM2 culture medium (Clonetics Corp) in T75 flasks. Fresh EGM2 medium was added to the flasks 24 hours later. Four or five days later, cells were exposed to another culture medium (F12K medium supplemented with 10% fetal bovine serum (FBS), […] endothelial cell growth supplement (ECGS), and 0.1 mg/mL heparin). Exponentially-growing HUVEC cells were used in experiments thereafter. Ten to twelve thousand HUVEC cells were plated in 96-well dishes in […] of rich, culture medium (described above). The cells were allowed to attach for 24 hours in this medium. The medium was then removed by aspiration and […] of starvation media (F12K+1% FBS) was added to each well. After 24 hours, […] of test agent dissolved in 1% DMSO in starvation medium or this vehicle alone was added into each treatment well; the final DMSO concentration was 0.1%. One hour later, […] of VEGF (30 ng/mL) in starvation media was added to all wells except those containing untreated controls; the final VEGF concentration was 6 ng/mL. Cellular proliferation was quantified 72 hours later by MTT dye reduction, at which time cells were exposed for 4 hours MTT (Promega Corp.). Dye reduction was stopped by addition of a stop solution (Promega Corp.) and absorbance at 595 nm was determined on a 96-well spectrophotometer plate reader.

[3] = molecular target: T2, FGF-R1 intracellular kinase domain (Homo sapiens, UniProt P11362, C488A/C584S/L457V); assay: FGF-R spectrophotometric assay; type: biochemical; conditions: 50 nM test compound; read-out: FGF-P (% inh @ 50 nM)
T2 construct: starting from the endogenous methionine residue 456 to glutamate 766; made in house; host or cells: baculovirus vector expression system
How it was run: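 Human FGF-R1 kinase domain (Met456–Glu766, L457V/C488A/C584S) expressed in baculovirus. Spectrophotometric kinase assay run as for VEGF-R2 with 50 nM FGF-R, 2 mM ATP and 15 mM poly(E4Y1).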

T2 sequence (P11362 456-766 L457V/C488A/C584S): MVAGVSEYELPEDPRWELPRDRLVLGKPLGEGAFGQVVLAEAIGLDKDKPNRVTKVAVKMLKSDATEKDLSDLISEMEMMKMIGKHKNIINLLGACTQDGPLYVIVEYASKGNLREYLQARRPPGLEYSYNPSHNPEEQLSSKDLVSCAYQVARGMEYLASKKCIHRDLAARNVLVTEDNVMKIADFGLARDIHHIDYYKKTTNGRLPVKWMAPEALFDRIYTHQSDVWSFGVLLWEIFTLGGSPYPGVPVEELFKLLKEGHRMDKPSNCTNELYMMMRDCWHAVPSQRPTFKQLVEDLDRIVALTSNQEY
T1 sequence (P35968 with tags, fused parts or gaps DEL940-989/E990V limits assumed): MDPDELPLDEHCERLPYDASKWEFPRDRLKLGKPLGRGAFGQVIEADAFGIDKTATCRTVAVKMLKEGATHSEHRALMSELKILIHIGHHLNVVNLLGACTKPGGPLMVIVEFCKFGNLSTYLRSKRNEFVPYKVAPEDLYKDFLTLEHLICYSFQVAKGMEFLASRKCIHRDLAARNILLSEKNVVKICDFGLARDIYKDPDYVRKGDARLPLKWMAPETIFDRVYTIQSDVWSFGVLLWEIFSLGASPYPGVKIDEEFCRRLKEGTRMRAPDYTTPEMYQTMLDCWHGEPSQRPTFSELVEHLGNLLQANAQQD

SMILES	pKi [1]	inhibition at 0.05 µM [3]	pIC50 [2]
Cc1cc(C)nc(NC(=O)Cc2ccc(Oc3ccnc4cc(C(=O)N5CCC5)sc34)cc2Cl)c1 [Example 49, 2-{4-[2-(Azetidine-1-carbonyl)-thieno[3,2-b]pyridin-7-yloxy]-2-chloro-phenyl}-N-(4,6-dimethyl-pyridin-2-yl)-acetamide]	> 9.00	> 10%	8.00 to 9.00
O=C(Cc1ccc(Oc2ccnc3cc(C(=O)N4CCC4)sc23)cc1Cl)Nc1ccc(Cl)cn1 [Example 50, 2-{4-[2-(Azetidine-1-carbonyl)-thieno[3,2-b]pyridin-7-yloxy]-2-chloro-phenyl}-N-(5-chloro-pyridin-2-yl)-acetamide]	8.00 to 9.00	> 10%	< 8.00
O=C(Cc1ccc(Oc2ccnc3cc(C(=O)N4CCC4)sc23)cc1Cl)Nc1ccccn1 [Example 51, 2-{4-[2-(Azetidine-1-carbonyl)-thieno[3,2-b]pyridin-7-yloxy]-2-chloro-phenyl}-N-pyridin-2-yl-acetamide]	8.00 to 9.00	0 to 5%	< 8.00
Cc1cc(NC(=O)Cc2ccc(Oc3ccnc4cc(C(=O)N5CCC5)sc34)cc2Cl)no1 [Example 52, 2-{4-[2-(Azetidine-1-carbonyl)-thieno[3,2-b]pyridin-7-yloxy]-2-chloro-phenyl}-N-(5-methyl-isoxazol-3-yl)-acetamide]	8.00 to 9.00	> 10%	< 8.00
Cc1cc(NC(=O)Cc2ccc(Oc3ccnc4cc(C(=O)N5CCC5)sc34)cc2Cl)on1 [Example 53, 2-{4-[2-(Azetidine-1-carbonyl)-thieno[3,2-b]pyridin-7-yloxy]-2-chloro-phenyl}-N-(3-methyl-isoxazol-5-yl)-acetamide]	> 9.00	0 to 5%	8.00 to 9.00
Cc1cc(NC(=O)Cc2ccc(Oc3ccnc4cc(C(=O)N5CCC5)sc34)cc2Cl)n[nH]1 [Example 55, 2-{4-[2-(Azetidine-1-carbonyl)-thieno[3,2-b]pyridin-7-yloxy]-2-chloro-phenyl}-N-(5-methyl-1H-pyrazol-3-yl)-acetamide]	> 9.00	0 to 5%	> 9.00
Cn1ccnc1-c1cc2nccc(Oc3ccc(CC(=O)Nc4ccccn4)c(Cl)c3)c2s1 [Example 60, 2-{2-Chloro-4-[2-(1-methyl-1H-imidazol-2-yl)-thieno[3,2-b]pyridin-7-yloxy]-phenyl}-N-pyridin-2-yl-acetamide]	8.00 to 9.00	0 to 5%	< 8.00
O=C(Cc1ccc(Oc2ccnc3cc(C(=O)N4CC[C@@H](O)C4)sc23)cc1Cl)Nc1ccccn1 [Example 61, 2-{2-Chloro-4-[2-((R)-3-hydroxy-pyrrolidine-1-carbonyl)-thieno[3,2-b]pyridin-7-yloxy]-phenyl}-N-pyridin-2-yl-acetamide]	8.00 to 9.00	0 to 5%	< 8.00
CCCCNC(=O)Oc1ccc(Oc2ccnc3cc(C(=O)N4CCC4)sc23)cc1 [Example 86, butyl-carbamic acid 4-[2-(azetidine-1-carbonyl)-thieno[3,2-b]pyridin-7-yloxy]-phenyl ester]	8.00 to 9.00	0 to 5%	> 9.00

Continued, in another order:

pKi [1]	inhibition at 0.05 µM [3]	SMILES	pIC50 [2]
8.00 to 9.00	0 to 5%	CO[C@@H]1CCN(C(=O)c2cc3nccc(Oc4ccc(CC(=O)Nc5ccccn5)c(Cl)c4)c3s2)C1 [Example 62, 2-{2-Chloro-4-[2-((R)-3-methoxy-pyrrolidine-1-carbonyl)-thieno[3,2-b]pyridin-7-yloxy]-phenyl}-N-pyridin-2-yl-acetamide]	< 8.00
< 8.00	0 to 5%	C=C(C(=O)NC)c1ccc(Oc2ccnc3cc(C(=O)N4CC[C@@H](O)C4)sc23)cc1 [Example 66, 2-{4-[2-((R)-3-Hydroxy-pyrrolidine-1-carbonyl)-thieno[3,2-b]pyridin-7-yloxy]-phenyl}-N-methyl-acrylamide]	< 8.00
< 8.00	0 to 5%	CNC(=O)Cc1ccc(Oc2ccnc3cc(C(=O)N4CC[C@@H](O)C4)sc23)cc1 [Example 69, 2-{4-[2-((R)-3-Hydroxy-pyrrolidine-1-carbonyl)-thieno[3,2-b]pyridin-7-yloxy]-phenyl}-N-methyl-acetamide]	< 8.00
8.00 to 9.00	0 to 5%	CNC(=O)C(O)c1ccc(Oc2ccnc3cc(C(=O)N4CCC4)sc23)cc1 (stereo not drawn) [Example 74, 2-{4-[2-(Azetidine-1-carbonyl)-thieno[3,2-b]pyridin-7-yloxy]-phenyl}-2-hydroxy-N-methyl-acetamide]	< 8.00
8.00 to 9.00	0 to 5%	CNC(=O)C(O)c1ccc(Oc2ccnc3cc(C(=O)N4CC[C@@H](O)C4)sc23)cc1 (stereo partly drawn) [Example 76, 2-Hydroxy-2-{4-[2-((R)-3-hydroxy-pyrrolidine-1-carbonyl)-thieno[3,2-b]pyridin-7-yloxy]-phenyl}-N-methyl-acetamide]	< 8.00
8.00 to 9.00	0 to 5%	COc1ccc2c(Oc3ccc(CC(=O)Nc4ccc(Cl)cn4)cc3)ccnc2c1 [Example 87, N-(5-Chloro-pyridin-2-yl)-2-[4-(7-methoxy-quinolin-4-yloxy)-phenyl]-acetamide]	< 8.00
